Experimental data published in the NIST ThermoML archive (doi:10.1021/je060271a).

Details: 303.15 K, Liquid, Vibrating tube method

CCCCCCCC(=O)OCC(COC(=O)CCCCCCC)(COC(=O)CCCCCCC)COC(=O)CCCCCCC [pentaerythritol tetraoctanoate]
Details	mass density [kg/m3]
2156.4 kPa	956.7
2179.1 kPa	956.6
2206.4 kPa	956.8
2234.6 kPa	956.8
2258 kPa	956.7
2287 kPa	956.8
2316.5 kPa	956.9
2341.8 kPa	956.8
2372.4 kPa	956.7
2402.9 kPa	957
2429.4 kPa	956.7
2462 kPa	956.8
2495.8 kPa	956.9
2524.1 kPa	957
2559.1 kPa	956.9
2596.2 kPa	957.1
2642 kPa	957
2696.3 kPa	957.1
2784.7 kPa	957.1
2865.2 kPa	957.2
2954.3 kPa	957.3
3081.5 kPa	957.2
3108.7 kPa	957.4
3121.2 kPa	957.4
3136.3 kPa	957.4
3151.3 kPa	957.4
3164 kPa	957.4
3179.1 kPa	957.5
3193.3 kPa	957.4
3204.5 kPa	957.4
3218.1 kPa	957.4
3229.7 kPa	957.4
3242.8 kPa	957.4
3256.4 kPa	957.5
3270.2 kPa	957.4
3284.1 kPa	957.5
3580.6 kPa	957.6
3702.5 kPa	957.6
3720 kPa	957.5
3734.9 kPa	957.7
3753.7 kPa	957.7
3901.1 kPa	957.9
4311.5 kPa	958.1
4330 kPa	958
4352.8 kPa	958.1
4371.7 kPa	958.1
4395.1 kPa	958.1
4412.6 kPa	958.1
4416.5 kPa	958.2
4419.7 kPa	958.2
4422.8 kPa	958.2
4423.3 kPa	958.2
4424.2 kPa	958.1
4426.8 kPa	958.2
4435.8 kPa	958.1
4446.7 kPa	958.3
4455.8 kPa	958.2
4466.6 kPa	958
4475.6 kPa	958.1
4486.7 kPa	958.2
4542.6 kPa	958.3
4584.4 kPa	958.1
4608.3 kPa	958.4
4628.1 kPa	958.3
4651.8 kPa	958.3
4675.6 kPa	958.3
4696.6 kPa	958.2
4717 kPa	958.3
4742.3 kPa	958.4
4763.2 kPa	958.3
4788.5 kPa	958.3
4809.9 kPa	958.5
4835.7 kPa	958.4
4857.2 kPa	958.4
4981.8 kPa	958.4
5009.3 kPa	958.4
5033 kPa	958.5
5062 kPa	958.5
5085.4 kPa	958.5
5113.6 kPa	958.5
5138.1 kPa	958.6
5167.4 kPa	958.5
5197.3 kPa	958.7
5221.9 kPa	958.5
5251.8 kPa	958.7
5277.7 kPa	958.7
5335.3 kPa	958.6
5367.5 kPa	958.6
5396 kPa	958.7
5428.7 kPa	958.7
5455.7 kPa	958.7
5489.1 kPa	958.8
5517.5 kPa	958.8
5552 kPa	958.7
5581.6 kPa	958.8
5767 kPa	959
5794 kPa	959.1
5810.8 kPa	959
5827.4 kPa	959
5847.7 kPa	959
5864.7 kPa	959.1
5884.7 kPa	959.1
5905.3 kPa	959.1
5922.3 kPa	959.1
5943.2 kPa	959
5960.8 kPa	959.2
5981.9 kPa	959.1
5999.7 kPa	959.2
6021.7 kPa	959.2
6040 kPa	959.2
6060.9 kPa	959.1
6079.2 kPa	959.1
6100.3 kPa	959.1
6121.9 kPa	959.2
6140.7 kPa	959.2
6163.6 kPa	959.3
6182 kPa	959.2
6204.5 kPa	959.3
6223.9 kPa	959.3
6247 kPa	959.2
6267.1 kPa	959.2
6290.2 kPa	959.3
6308.9 kPa	959.3
6332.4 kPa	959.2
6355.9 kPa	959.3
6375.8 kPa	959.2
6400.1 kPa	959.3
6445.1 kPa	959.4
6470.5 kPa	959.3
6490.8 kPa	959.3
6583.6 kPa	959.4
6610.2 kPa	959.4
6631.8 kPa	959.5
6658.3 kPa	959.5
6679.2 kPa	959.5
6705.9 kPa	959.6
6728.4 kPa	959.5
6755.2 kPa	959.5
6783 kPa	959.5
6805.9 kPa	959.6
6833.9 kPa	959.6
6861.7 kPa	959.7
6913.4 kPa	959.7
7101.4 kPa	959.8
7125.9 kPa	959.9
7156.7 kPa	959.7
7182.6 kPa	959.8
7214 kPa	959.8
